The values below come from ChEMBL document CHEMBL1201862, “PubChem BioAssay data set” (2004).

Molecules are shown by their SMILES.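 Grown in 96-well plates, cells were treated for 48 hours with each compound at five concentrations. Insufficient inhibition: endpoint recorded as highest concentration tested. Abbreviation: GI50, concentration required for 50% inhibition of growth.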 Calls of active or inactive are those of the source. No stated cut-off is given here; in the data, active = GI50 up to about 1.1 µM and inactive = higher.

Test systems include Hs-578T; NCI/ADR-RES; RXF 393; OVCAR-3; SK-OV-3; LOX IMVI; UO-31; Malme-3M; TK-10; CAKI-1; CCRF-CEM; OVCAR-5; T47D; SNB-75; MDA-MB-231; HOP-62; SF-295; SR; RPMI-8226; K562.
What all share (assay): DTP human tumour cell line panel, 48 h

For the compound `CN1/C(=C/C=C/C=C/C=C2C(=O)c3ccccc3C2=O)C(C)(C)c2ccccc21`, the GI50 – broadly, the concentration that inhibits growth by half – in the assay with Hs-578T was 29.9 µM (inactive); in the assay with NCI/ADR-RES, 76.2 µM (inactive); in the assay on RXF 393 it was 24.2 µM (inactive); in the assay with OVCAR-3, 20 µM (inactive); with SK-OV-3 it was 39.4 µM (inactive); in the assay with LOX IMVI it was 40.3 µM (inactive). The GI50 with UO-31 is 37.2 µM (inactive); in the assay on Malme-3M it was 29.4 µM (inactive); in the assay with TK-10, > 100 µM (inactive); with CAKI-1, 44 µM (inactive); in the assay with CCRF-CEM, > 100 µM (inactive); with OVCAR-5, 33 µM (inactive). The GI50 is 6.76 µM (inactive) in the assay with T47D; 48.6 µM (inactive) in the assay on SNB-75; 10.3 µM (inactive) with MDA-MB-231; > 100 µM (inactive) in the assay on HOP-62; 35.5 µM (inactive) with SF-295; > 100 µM (inactive) with SR. For the same compound, the GI50 in the assay on RPMI-8226 was 6.55 µM (inactive); with K562 it was 13.3 µM (inactive).
For the compound `O=C1N[C@H]2C(=O)c3c(Cl)sc(Cl)c3[C@H]2O1`, the GI50 in the assay on Hs-578T was 23.2 µM (inactive); with NCI/ADR-RES, 20.1 µM (inactive); in the assay with RXF 393, 3.42 µM (inactive); in the assay on OVCAR-3, 1.92 µM (inactive); in the assay on SK-OV-3, 15.5 µM (inactive); in the assay with LOX IMVI, 2.7 µM (inactive). Also, the GI50 with UO-31 was 1.71 µM (inactive); in the assay on Malme-3M, 14.3 µM (inactive); with TK-10 it was 29.2 µM (inactive); in the assay on CAKI-1 it was 4.79 µM (inactive); in the assay on CCRF-CEM, 0.774 µM (active); in the assay on OVCAR-5 it was 19.4 µM (inactive). Also, the GI50 was 11.6 µM (inactive) with T47D; 15.5 µM (inactive) in the assay with SNB-75; 14.1 µM (inactive) with MDA-MB-231; 16.5 µM (inactive) in the assay with HOP-62; 16.9 µM (inactive) in the assay with SF-295; 2.56 µM (inactive) in the assay with SR. For the same compound, the GI50 in the assay on RPMI-8226 is 13.3 µM (inactive); in the assay on K562 it was 1.99 µM (inactive).
Take `CN1CCN([C@H]2C[C@H]3[C@@H]4CC=C5C[C@@H](N6CCCC6)CC[C@]5(C)[C@H]4CC[C@]3(C)[C@H]2O)CC1`: the GI50 is > 100 µM (inactive) with Hs-578T; > 100 µM (inactive) in the assay with NCI/ADR-RES; 10.7 µM (inactive) in the assay with RXF 393; > 100 µM (inactive) in the assay with OVCAR-3; > 100 µM (inactive) in the assay on SK-OV-3; 19.6 µM (inactive) in the assay with LOX IMVI. The GI50 in the assay on UO-31 is 94.4 µM (inactive); with Malme-3M, 19.9 µM (inactive); in the assay on TK-10 it was > 100 µM (inactive); with CAKI-1, > 10 µM (inactive); with CCRF-CEM, 38.6 µM (inactive); in the assay with OVCAR-5, 50.2 µM (inactive). The GI50 with T47D is > 100 µM (inactive); in the assay on SNB-75, > 100 µM (inactive); with MDA-MB-231, 74.6 µM (inactive); in the assay on HOP-62 it was 51.1 µM (inactive); in the assay on SF-295 it was 48.4 µM (inactive); in the assay on SR it was < 0.01 µM (active). The GI50 in the assay with RPMI-8226 was 24.9 µM (inactive); with K562, 14.9 µM (inactive).
For `C=C(C(=O)OC)c1cc2ccccc2n1S(=O)(=O)c1ccccc1`, the GI50 in the assay on Hs-578T was 4.11 µM (inactive); in the assay on NCI/ADR-RES it was 3.37 µM (inactive); with RXF 393, 0.792 µM (active); in the assay on OVCAR-3, 3.4 µM (inactive); in the assay on SK-OV-3 it was 11.3 µM (inactive); in the assay on LOX IMVI, 2.43 µM (inactive). Moreover, the GI50 in the assay on UO-31 was 2.36 µM (inactive); in the assay on Malme-3M, 2.11 µM (inactive); in the assay on TK-10, 1.57 µM (inactive); in the assay on CAKI-1 it was 0.82 µM (active); in the assay on CCRF-CEM it was 1.24 µM (inactive); in the assay on OVCAR-5, 5.68 µM (inactive). Moreover, the GI50 was 1.7 µM (inactive) in the assay with T47D; 3.3 µM (inactive) in the assay with SNB-75; 1.98 µM (inactive) with MDA-MB-231; 3.43 µM (inactive) in the assay with HOP-62; 7.66 µM (inactive) in the assay on SF-295; 0.815 µM (active) in the assay on SR. For the same compound, the GI50 was 1.28 µM (inactive) with RPMI-8226 and 2.34 µM (inactive) in the assay on K562.
On to `O=C1CSC(c2ccccc2O)N1c1nc2cc3sc(N4C(=O)CSC4c4ccccc4O)nc3cc2s1` (stereo not given), for which the GI50 is > 58.9 µM (inactive) with Hs-578T; 8.47 µM (inactive) in the assay with NCI/ADR-RES; > 100 µM (inactive) in the assay with RXF 393; > 100 µM (inactive) in the assay on OVCAR-3; > 100 µM (inactive) with SK-OV-3; 24 µM (inactive) with LOX IMVI. For the same compound, the GI50 in the assay on UO-31 was 23.3 µM (inactive); with Malme-3M, > 77.3 µM (inactive); with TK-10 it was > 100 µM (inactive); with CAKI-1 it was 37.4 µM (inactive); in the assay with CCRF-CEM, 3.93 µM (inactive); with OVCAR-5, > 100 µM (inactive). The GI50 with T47D was 47.8 µM (inactive); in the assay with SNB-75, 99.8 µM (inactive); with MDA-MB-231, > 57.8 µM (inactive); in the assay on HOP-62, > 100 µM (inactive); with SF-295 it was > 100 µM (inactive); with SR, 7.71 µM (inactive). The GI50 was 32.1 µM (inactive) with RPMI-8226 and 64.3 µM (inactive) in the assay with K562.
`CCOC(=O)c1c(N2CCOCC2)[nH]c(=O)c(C(c2c(O)c(C(=O)OCC)c(N3CCOCC3)[nH]c2=O)C(C)C)c1O`: the GI50 in the assay with Hs-578T was 47.9 µM (inactive); in the assay on NCI/ADR-RES it was > 100 µM (inactive); in the assay on RXF 393, > 100 µM (inactive); in the assay on OVCAR-3, > 100 µM (inactive); in the assay with SK-OV-3, 86.5 µM (inactive); with LOX IMVI, > 100 µM (inactive). For the same compound, the GI50 in the assay with UO-31 was > 100 µM (inactive); in the assay on Malme-3M it was > 100 µM (inactive); in the assay with TK-10, > 100 µM (inactive); in the assay with CAKI-1, > 100 µM (inactive); with CCRF-CEM, > 100 µM (inactive); with OVCAR-5, 73.8 µM (inactive). Also, the GI50 is > 100 µM (inactive) in the assay on T47D; 22.4 µM (inactive) in the assay on SNB-75; > 100 µM (inactive) in the assay with MDA-MB-231; 60.4 µM (inactive) in the assay on HOP-62; 58.3 µM (inactive) in the assay with SF-295; > 100 µM (inactive) in the assay on SR. The GI50 with RPMI-8226 and with K562 was > 100 µM (inactive) throughout.
As to `Cc1ccc(O)c(C2=CC(c3cccc(Br)c3)SC(=N)N2)c1` (stereo not given), the GI50 with Hs-578T is 20.4 µM (inactive); in the assay on NCI/ADR-RES, 27.9 µM (inactive); in the assay with RXF 393, 19.5 µM (inactive); with OVCAR-3, 39.5 µM (inactive); with SK-OV-3, 28.8 µM (inactive); in the assay on LOX IMVI, 18.5 µM (inactive). Further, the GI50 in the assay with UO-31 is 25 µM (inactive); in the assay with Malme-3M it was 25.2 µM (inactive); with TK-10, 19.6 µM (inactive); in the assay with CAKI-1 it was 28.4 µM (inactive); with CCRF-CEM, 25.6 µM (inactive); with OVCAR-5, 29.5 µM (inactive). The GI50 with T47D is 26.5 µM (inactive); in the assay with SNB-75, 19.5 µM (inactive); with MDA-MB-231 it was 25.8 µM (inactive); with HOP-62 it was 21.6 µM (inactive); in the assay with SF-295, 21.2 µM (inactive); in the assay with SR it was 17.1 µM (inactive). Besides, the GI50 was 18 µM (inactive) in the assay with RPMI-8226 and 24.5 µM (inactive) in the assay with K562.
As to `COc1cc2c(c(OC)c1OC)C(=O)[C@@H]1[C@H]2N1C(=O)NCCCl`, the GI50 in the assay with Hs-578T was 61.2 µM (inactive); in the assay on NCI/ADR-RES, > 100 µM (inactive); in the assay on RXF 393 it was 53.3 µM (inactive); with OVCAR-3 it was 38.4 µM (inactive); in the assay with SK-OV-3 it was > 100 µM (inactive); in the assay with LOX IMVI, 39.3 µM (inactive). The GI50 in the assay on UO-31 is 73.5 µM (inactive); in the assay on Malme-3M, 64.7 µM (inactive); with TK-10, > 100 µM (inactive); in the assay on CAKI-1 it was 56.8 µM (inactive); in the assay on CCRF-CEM, 30.1 µM (inactive); with OVCAR-5, > 100 µM (inactive). In addition, the GI50 with T47D was 48.3 µM (inactive); in the assay on SNB-75, 40.9 µM (inactive); in the assay with MDA-MB-231 it was > 100 µM (inactive); in the assay on HOP-62, > 100 µM (inactive); with SF-295 it was > 100 µM (inactive); in the assay on SR, 46.2 µM (inactive). The values for the GI50 in the assay on RPMI-8226 and in the assay with K562 were 70 µM (inactive) and 45.8 µM (inactive), respectively.
Consider `NNC(=O)C(O)C(O)C(O)CO` (stereo not given), for which the GI50 in the assay on Hs-578T is > 100 µM (inactive); with NCI/ADR-RES it was > 100 µM (inactive); in the assay on RXF 393, > 100 µM (inactive); in the assay on OVCAR-3 it was > 100 µM (inactive); with SK-OV-3, > 100 µM (inactive); in the assay on LOX IMVI, 88.9 µM (inactive). The GI50 in the assay with UO-31, in the assay on Malme-3M, in the assay on TK-10, in the assay on CAKI-1, with CCRF-CEM and with OVCAR-5 was > 100 µM (inactive) in each case. In addition, the GI50 is > 100 µM (inactive) with T47D; > 100 µM (inactive) with SNB-75; > 100 µM (inactive) in the assay on MDA-MB-231; > 100 µM (inactive) in the assay on HOP-62; > 100 µM (inactive) with SF-295; 67.8 µM (inactive) in the assay on SR. For the same compound, the GI50 in the assay with RPMI-8226 and in the assay on K562 was > 100 µM (inactive) each time.
Turning to `CCOC(=O)c1c(N2CCOCC2)[nH]c(=O)c(C(c2ccc(Cl)c([N+](=O)[O-])c2)c2c(O)c(C(=O)OCC)c(N3CCOCC3)[nH]c2=O)c1O`, the GI50 in the assay on Hs-578T is > 100 µM (inactive); in the assay on NCI/ADR-RES, 39 µM (inactive); with RXF 393, > 100 µM (inactive); in the assay on OVCAR-3, 17.2 µM (inactive); in the assay with SK-OV-3, > 100 µM (inactive); with LOX IMVI, 19.5 µM (inactive). The GI50 was 34 µM (inactive) in the assay with UO-31; 41.4 µM (inactive) in the assay with Malme-3M; 39.9 µM (inactive) with TK-10; 82.6 µM (inactive) in the assay on CAKI-1; 4.76 µM (inactive) with CCRF-CEM; > 100 µM (inactive) in the assay with OVCAR-5. Also, the GI50 is 19.7 µM (inactive) with T47D; 48.1 µM (inactive) in the assay on SNB-75; 15.2 µM (inactive) with MDA-MB-231; 34.9 µM (inactive) in the assay on HOP-62; > 100 µM (inactive) in the assay on SF-295; 36.1 µM (inactive) in the assay with SR. Besides, the results for the GI50 with RPMI-8226 and in the assay with K562 were 26.7 µM (inactive) and 30.3 µM (inactive), respectively.
